# Laboratory results from PubChem BioAssay (NCI).
#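 Grown in 96-well plates, cells were treated for 48 hours with each compound at five concentrations. Insufficient inhibition: endpoint recorded as highest concentration tested. The concentration for full growth arrest is given as TGI.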
# Tests used:
# Assay in all cases: NCI tumour cell line growth inhibition, 48 h
# A549 NSCLC = system: A549 NSCLC
# BT-549 breast = system: BT-549 breast
# CAKI-1 renal = system: CAKI-1 renal
# CCRF-CEM leukemia = system: CCRF-CEM leukemia
# HCT-15 colon = system: HCT-15 colon
# HOP-62 NSCLC = system: HOP-62 NSCLC
# HS 578T breast = system: HS 578T breast
# IGROV1 ovarian = system: IGROV1 ovarian
# K-562 leukemia = system: K-562 leukemia
# LOX IMVI melanoma = system: LOX IMVI melanoma
# MCF7 breast = system: MCF7 breast
# MDA-MB-231 breast = system: MDA-MB-231 breast
# RPMI-8226 leukemia = system: RPMI-8226 leukemia
# SF-295 CNS = system: SF-295 CNS
# SK-MEL-28 melanoma = system: SK-MEL-28 melanoma
# SW-620 colon = system: SW-620 colon
# T-47D breast = system: T-47D breast
# TK-10 renal = system: TK-10 renal
# OVCAR-3 ovarian = system: OVCAR-3 ovarian
# OVCAR-5 ovarian = system: OVCAR-5 ovarian
Compound,TGI (A549 NSCLC),TGI (BT-549 breast),TGI (CAKI-1 renal),TGI (CCRF-CEM leukemia),TGI (HCT-15 colon),TGI (HOP-62 NSCLC),TGI (HS 578T breast),TGI (IGROV1 ovarian),TGI (K-562 leukemia),TGI (LOX IMVI melanoma),TGI (MCF7 breast),TGI (MDA-MB-231 breast),TGI (RPMI-8226 leukemia),TGI (SF-295 CNS),TGI (SK-MEL-28 melanoma),TGI (SW-620 colon),TGI (T-47D breast),TGI (TK-10 renal),TGI (OVCAR-3 ovarian),TGI (OVCAR-5 ovarian)
O=P(c1ccccc1)(c1ccccc1)c1ccc2c(c1)OCCOCCOCCOCCO2,> 100 µM,> 100 µM,> 100 µM,> 100 µM,> 100 µM,> 100 µM,> 100 µM,> 100 µM,> 100 µM,> 100 µM,> 100 µM,> 100 µM,> 100 µM,> 100 µM,> 100 µM,> 100 µM,> 100 µM,> 100 µM,–,–
O=[N+]([O-])c1ccc(N/N=C(\c2ccccc2)c2ccccn2)nc1,24.2 µM,87.1 µM,29.1 µM,> 91.5 µM,> 28.5 µM,31.2 µM,26 µM,20.5 µM,> 100 µM,–,8.45 µM,61.7 µM,> 100 µM,25.7 µM,> 100 µM,> 77.1 µM,26.9 µM,–,23.3 µM,85.1 µM
CN(C)C(=S)N/N=C(\C(=N/NC(=S)N(C)C)c1ccccn1)c1ccccn1,27.3 µM,35.5 µM,34.1 µM,–,31.6 µM,38.7 µM,> 46 µM,27.1 µM,> 100 µM,> 100 µM,> 48.7 µM,43.1 µM,> 100 µM,29.6 µM,34.4 µM,29.9 µM,8.79 µM,22.2 µM,14.6 µM,55.1 µM
Cc1cn([C@H]2C[C@@H]3[C@@H](COC(CCl)N3O)O2)c(=O)[nH]c1=O (stereo partly drawn),> 100 µM,> 100 µM,> 100 µM,> 100 µM,> 100 µM,> 100 µM,> 100 µM,> 100 µM,> 100 µM,> 100 µM,> 100 µM,–,> 100 µM,> 100 µM,> 100 µM,> 100 µM,> 100 µM,> 100 µM,> 100 µM,> 100 µM
COc1cc([C@@H]2c3cc4c(cc3[C@@H](OC3OC5COC(C)OC5C(OC(=O)CN5CCN(C)CC5)C3OC(=O)CN3CCN(C)CC3)C3COC(=O)[C@@H]32)OCO4)cc(OC)c1OC(=O)CN1CCN(C)CC1 (stereo partly drawn),–,> 100 µM,> 100 µM,46.6 µM,> 100 µM,> 100 µM,> 100 µM,> 100 µM,> 100 µM,> 100 µM,> 100 µM,> 100 µM,–,> 100 µM,–,> 100 µM,> 100 µM,> 100 µM,> 100 µM,> 100 µM
CC1C2(C)OC(=N)C(C#N)(C(C)O2)C1(C#N)C#N (stereo not drawn),> 100 µM,92.5 µM,26.4 µM,51.3 µM,28.8 µM,–,> 100 µM,> 100 µM,> 100 µM,41.4 µM,61.9 µM,41.6 µM,–,> 100 µM,88.6 µM,43 µM,> 100 µM,> 100 µM,51.5 µM,> 100 µM
C(=NCCCN1CCN(CCCN=Cc2cccc3ccccc23)CC1)c1cccc2ccccc12,> 100 µM,90.8 µM,> 100 µM,> 100 µM,> 100 µM,> 100 µM,> 100 µM,> 100 µM,> 100 µM,> 100 µM,–,> 100 µM,> 100 µM,> 100 µM,> 100 µM,> 100 µM,> 100 µM,> 100 µM,> 100 µM,> 100 µM
NCCCCN(CCCN)Cc1ccc2ccccc2c1,> 100 µM,> 100 µM,33 µM,> 100 µM,> 100 µM,–,42.9 µM,> 100 µM,> 100 µM,> 100 µM,> 100 µM,> 100 µM,> 100 µM,> 100 µM,> 100 µM,> 100 µM,> 100 µM,> 100 µM,–,> 100 µM
CCC1c2[nH]c3ccccc3c2C[C@H]2C(=O)NC(CCCCNC(=O)OC(C)(C)C)C(=O)N12 (stereo partly drawn),> 100 µM,58.2 µM,70.4 µM,–,> 100 µM,> 100 µM,76.2 µM,> 100 µM,> 100 µM,54.7 µM,> 100 µM,99.4 µM,63.3 µM,62.4 µM,> 100 µM,> 100 µM,> 100 µM,> 100 µM,63.4 µM,> 100 µM
C/C(=N\Nc1nc2ccccc2s1)c1cnccn1,> 65.5 µM,> 100 µM,> 42.2 µM,> 100 µM,18.2 µM,> 54.8 µM,20 µM,7.28 µM,> 34.1 µM,–,20.2 µM,> 88.1 µM,> 47.8 µM,> 23.5 µM,> 100 µM,> 100 µM,> 100 µM,–,17.4 µM,> 77.7 µM
